Earlier results, collected in patent EP4578905A1, “COMPOSITION, PREPARATION METHOD THEREFOR, AND USE THEREOF” (Bloomage Biotechnology Corporation Limited, priority 2022, dated 2024).
Where two headings read alike, the source gives them in different places.

NCCCC(=O)O [γ-aminobutyric acid]
dissociation constant pK (first pK printed): 4.03 | dissociation constant pK (second pK printed): 10.56
